pEC50: −log10 of the molar value.
Legend:
D2R WT [1] = molecular target: T1, D2R WT (Homo sapiens, UniProt P14416); assay: Split luciferase GloSensor cAMP assay, activation of Gi protein; format: cell-based; conditions: for G protein EC50: wild type D2R, HEK 293T, cAMP GloSensor
D2R WT [2] = molecular target: T1, D2R WT; assay: Tango arrestin recruitment assay; format: cell-based; conditions: wild type D2R, HTLA cells

T1 sequence (P14416 whole entry): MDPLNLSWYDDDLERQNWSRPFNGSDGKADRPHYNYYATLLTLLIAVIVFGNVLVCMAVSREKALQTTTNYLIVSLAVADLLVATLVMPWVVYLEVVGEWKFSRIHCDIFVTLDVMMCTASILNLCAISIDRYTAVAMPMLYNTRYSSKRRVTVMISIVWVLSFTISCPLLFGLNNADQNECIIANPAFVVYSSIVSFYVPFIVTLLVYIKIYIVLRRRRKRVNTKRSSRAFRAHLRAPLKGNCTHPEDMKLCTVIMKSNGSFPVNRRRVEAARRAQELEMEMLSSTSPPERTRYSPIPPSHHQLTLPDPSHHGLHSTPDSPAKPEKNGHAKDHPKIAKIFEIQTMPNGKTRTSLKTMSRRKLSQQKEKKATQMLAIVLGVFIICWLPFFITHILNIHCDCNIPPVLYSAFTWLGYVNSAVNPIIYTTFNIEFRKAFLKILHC

pEC50 (D2R WT [1])	G protein EC50 (D2R WT [1])	β-arrestin EC50 (D2R WT [2])	Structure (SMILES)
7.73			Oc1c(CN2CCN(c3ccccn3)CC2)cc(F)c2cccnc12 [MLS-d1, 5-Fluoro-7-((4-(pyridin-2-yl)piperazin-1-yl)methyl)quinolin-8-ol]
7.02			Oc1c(CN2CCN(c3ccccn3)CC2)ccc2cccnc12 [MLS-d2, 7-((4-(Pyridin-2-yl)piperazin-1-yl)methyl)quinolin-8-ol]
	completely inactive	completely inactive	Oc1c(CN2CCN(c3ccccn3)CC2)cc(Br)c2cccnc12 [MLS-d3, 5-Bromo-7-((4-(pyridin-2-yl)piperazin-1-yl)methyl)quinolin-8-ol]
	did not show activation	did not show activation	O=[N+]([O-])c1cc(CN2CCN(c3ccccn3)CC2)c(O)c2ncccc12 [MLS-d4, 5-Nitro-7-((4-(pyridin-2-yl)piperazin-1-yl)methyl)quinolin-8-ol]
